Experiments:
[1] = test system: CE of recombinant pET30a(+)/BL21(DE3); type: in vitro ADME, E. coli; conditions: CE of pET30a(+)/BL21(DE3) added at 12 h; PBS; 30 °C; HPLC-UV 238 nm; Figure S1
Protocol: The experiments were carried out with five treatments as following: • Control groups for treatment A and treatment C: the CEs of recombinant bacteria pGEX-4T-1/BL21(DE3) without protein USTB-05-A and recombinant bacteria pET30a(+)/BL21(DE3) without protein USTB-05-C were added into two tubes with PBS containing NOD, respectively. • Treatment A: the CE of recombinant bacteria pGEX-4T-1/USTB-05-A/BL21(DE3) containing crude protein USTB-05-A was added into PBS containing NOD. • Treatment C: the CE of recombinant bacteria pET30a(+)/USTB-05-C/BL21(DE3) containing crude protein USTB-05-C was added into PBS containing NOD. • Treatment AC: at 0 h, the CE containing crude protein USTB-05-A was added into PBS containing NOD. At 12 h, the CE containing crude protein USTB-05-C was added to the above solution. • Control group for treatment A and treatment C: at 0 h, the CE containing crude protein USTB-05-A was added into the test tubes with PBS containing NOD. At 12 h, the CE of pET30a(+)/BL21(DE3) without protein USTB-05-C was added to the above solution. […]
The concentration of NOD was detected by high performance liquid chromatography (HPLC) (LC10ATVP, Shimadzu Co., Ltd., Tokyo, Japan) with a UV diode array detector at 238 nm. […] The spectra of NOD and its biodegradation products were detected at the time of HPLC analysis.

USTB-05-C = conditions: CE protein 165 mg L^−1 added at 12 h; followed from 13 h until 24 h; PBS; 30 °C, 200 rpm; HPLC-UV 238 nm
USTB-05-A = conditions: initial NOD 13.7 mg L^−1; CE protein 158 mg L^−1; PBS; 30 °C, 200 rpm; 12 h to 24 h; HPLC-UV 238 nm
[2] = test system: MlrA point mutants H260A and E265A; conditions: cited from earlier work
[3] = test system: cell-free extract (CE) of Sphingopyxis sp. USTB-05; conditions: cited from earlier work
USTB-05-A mutants = conditions: cited from earlier work

Question: For C/C=C(/C(=O)N[C@@H](C(=O)O)[C@H](C)C(=O)N[C@@H](CCCNC(=N)N)C(=O)O)N(C)C(=O)CC[C@@H](NC(=O)[C@@H](C)[C@@H](N)/C=C/C(C)=C/[C@H](C)[C@H](Cc1ccccc1)OC)C(=O)O [product A], which “concentration of product A with control CE without USTB-05-C (control group of treatment AC)” value [1] is on record?
Answer: The value was “constant”.

Question: And the “change of product A peak after addition of CE containing USTB-05-C (treatment AC)” value (USTB-05-C)?
Answer: Its value is “decreased and disappeared”.

Question: What about the “peaks after the first 12 h until 24 h with CE containing USTB-05-A only (treatment A)” value (USTB-05-A) of the same molecule?
Answer: Its value is “remained constant”.

Question: For MC-LR, which “MC-LR biodegradation by MlrA point mutants H260A and E265A” value [2] is on record?
Answer: Its value is “no activity”.

Question: What about the “time to complete biodegradation by CE” value [3] of the same molecule?
Answer: Its value is ≤ 3 h.

Question: What about the “MC-LR biodegradation by N264A mutant” value (USTB-05-A mutants) of the same molecule?
Answer: Its value is “significant decrease in MlrA activity”.

Question: And the “MC-LR biodegradation by W176A and W201A mutants” value (USTB-05-A mutants)?
Answer: The value was “decrease in the reaction rate to some extent”.

Question: What about the “MC-LR biodegradation by point mutants E172A, H205A and H260A” value (USTB-05-A mutants) of the same molecule?
Answer: Its value is “complete loss of enzymatic activity”.

Question: Which “time to complete elimination by CE” value [3] does the source give for MC-YR here?
Answer: The value was ≤ 10 h.

Reference: publication PMC6832836 (Toxins, 2019)
